The text below walks through data of ChEMBL document CHEMBL3351995, “β-Nitro substituted carboxylic acids and their cytotoxicity” (Bioorg Med Chem Lett, 2014).

Molecules are shown by their SMILES. The source made the active and inactive calls. The calls are words filed in the database; no cut-off is given here. A value given as a limit tells only on which side of the number the result lay.

In one assay the test system is MCF7. As to the kind of experiment: Cytotoxicity against human MCF7 cells by SRB assay. The format is functional, cell-based. In general terms: The SRB assay estimates cell density from bound dye.
Assay [1] in a line: Cytotoxicity against human SW1736 cells by SRB assay. The format is functional, cell-based. Conditions: SW-1736.
Assay [2] is described as follows: Cytotoxicity against human A253 cells by SRB assay. In kind it is functional, cell-based.
The nature of assay [3]: Cytotoxicity against human Lipo cells by SRB assay. In kind it is functional, cell-based.
The nature of assay [4]: Cytotoxicity against human 518A2 cells by SRB assay. The format is functional, cell-based.
The test system of the next assay is 8505C. As to the kind of experiment: Cytotoxicity against human 8505C cells by SRB assay. The format is functional, cell-based.
Assay [5] can be described thus: Cytotoxicity against mouse NIH/3T3 cells by SRB assay. In kind it is cell-based. Conditions: NIH3T3.
Assay [6] can be described thus: Cytotoxicity against human DLD1 cells by SRB assay. In kind it is functional, cell-based. Conditions: DLD-1.
Another assay deals with A2780. As to the kind of experiment: Cytotoxicity against human A2780 cells by SRB assay. In kind it is functional, cell-based.
The test system of another assay is A549. As to the kind of experiment: Cytotoxicity against human A549 cells by SRB assay. The format is functional, cell-based.
Assay [7] deals with 518A2. As to the kind of experiment: Induction of apoptosis in human 518A2 cells assessed as necrotic cells at 35 uM after 48 or 72 hrs by annexin V-FITC/propidium iodide staining-based flow cytometry. In kind it is functional. In general terms: A flow cytometer gives signals particle by particle.
In assay [8] the test system is 518A2. As to the kind of experiment: Induction of apoptosis in human 518A2 cells assessed as secondary necrotic cells at 35 uM after 24 hrs by fluorescence microscopy. In kind it is functional, cell-based.
The subject of assay [9] is 518A2. As to the kind of experiment: Induction of apoptosis in human 518A2 cells assessed as normal cells at 35 uM after 48 or 72 hrs by annexin V-FITC/propidium iodide staining-based flow cytometry. The format is functional.
For assay [10], the system named is 518A2. As to the kind of experiment: Induction of apoptosis in human 518A2 cells assessed as secondary necrotic cells at 35 uM after 48 or 72 hrs by annexin V-FITC/propidium iodide staining-based flow cytometry. The format is functional.
The subject of assay [11] is 518A2. As to the kind of experiment: Induction of apoptosis in human 518A2 cells assessed as apoptotic ells at 35 uM after 48 or 72 hrs by annexin V-FITC/propidium iodide staining-based flow cytometry. The format is functional.

Usually IC50 stands for the concentration at which inhibition is half-maximal. A lower IC50 goes with inhibition by little substance.

`CCOC(=O)C(C[N+](=O)[O-])c1ccc(OC)cc1` (stereo not given): the IC50 (in the assay with MCF7; in assay [1]; in assay [2]; in assay [3]; in assay [4]; with 8505C) was > 30 µM throughout. Besides, the IC50 (in assay [5]; in assay [6]; in the assay with A2780; in the assay with A549) was > 30 µM each time.

Consider `CCOC(=O)C(C[N+](=O)[O-])c1ccccc1` (stereo not given), for which the IC50 (with MCF7; in assay [1]; in assay [2]; in [3]; in assay [4]; in the assay on 8505C) was > 30 µM throughout. Further, the IC50 (in assay [5]; in assay [6]; in the assay with A2780; in the assay with A549) was > 30 µM in each case.

Turning to `CCOC(=O)C(C)(C[N+](=O)[O-])c1ccc(Cl)cc1` (stereo not given), the half-inhibitory concentration (IC50) (in the assay with MCF7; in assay [1]; in [2]; in assay [3]; in assay [4]; in the assay on 8505C) was > 30 µM each time. Moreover, the IC50 (in assay [5]; in assay [6]; in the assay with A2780; with A549) was > 30 µM in each case.

As to `O=C(Cc1ccccc1)C(C[N+](=O)[O-])c1ccc(Cl)cc1` (stereo not given), the IC50 with MCF7 was 18.2 µM; in assay [1], 23.9 µM; in [2] it was 21.4 µM; in [3] it was 28.9 µM; in assay [4], 23.9 µM; with 8505C, > 30 µM. For the same molecule, the half-inhibitory concentration (IC50) was 9.2 µM in assay [5], 22.5 µM in assay [6], 12.1 µM in the assay on A2780 and > 30 µM in the assay on A549.

For `CCOC(=O)C(C[N+](=O)[O-])c1cccc(OC(F)(F)F)c1` (stereo not given), the IC50 with MCF7 was > 30 µM; in [1], 16.6 µM; in assay [2], 11.8 µM; in assay [3], > 30 µM; in [4], 14.5 µM; with 8505C, 22.1 µM. For the same molecule, the IC50 in assay [5] is > 30 µM; in assay [6], > 30 µM; in the assay with A2780, 2.2 µM; with A549, 19.9 µM.

On to `CCOC(=O)C(C[N+](=O)[O-])c1ccc(C(F)(F)F)cc1` (stereo not given), for which the IC50 in the assay on MCF7 worked out at 6.7 µM; in assay [1], 6.3 µM; in assay [2], 9.8 µM; in [3], 15.2 µM; in assay [4], 15.2 µM; with 8505C, 13.8 µM. Further, the 50% inhibitory concentration (IC50) was 9.7 µM in assay [5], 11 µM in [6], 6.6 µM in the assay on A2780 and 9.9 µM in the assay with A549.

In the case of `COC(=O)C(C[N+](=O)[O-])c1ccc(Cl)cc1` (stereo not given), the IC50 is 3.4 µM with MCF7; 5.8 µM in assay [1]; 5.4 µM in assay [2]; 8.7 µM in assay [3]; 5.8 µM in assay [4]; 11.6 µM with 8505C. Also, the IC50 in assay [5] was found to be 2.1 µM; in [6], 5.2 µM; with A2780, 2.5 µM; in the assay with A549 it was 10.5 µM.

As for `CCOC(=O)C(C[N+](=O)[O-])c1cccc(Cl)c1` (stereo not given), the IC50 with MCF7 amounted to 17.9 µM; in assay [1], 8.3 µM; in [2] it was 10.6 µM; in assay [3] it was 19.5 µM; in [4], 7.3 µM; in the assay with 8505C it was 14.9 µM. In addition, the IC50 was found to be 21.1 µM in assay [5], 14.5 µM in assay [6], 14.4 µM in the assay with A2780 and 3.5 µM in the assay on A549.

With `C=C(C#N)c1ccc(Cl)cc1`, the 50% inhibitory concentration (IC50) with MCF7 is 14.2 µM; in [1] it was > 30 µM; in assay [2] it was > 30 µM; in assay [3], > 30 µM; in assay [4], > 30 µM; with 8505C, > 30 µM. Moreover, the IC50 is 23.5 µM in assay [5], > 30 µM in assay [6], 15.4 µM with A2780 and > 30 µM with A549.

On to `CCOC(=O)C(C[N+](=O)[O-])c1ccc(F)cc1` (stereo not given), for which the IC50 (with MCF7; in assay [1]; in assay [2]; in assay [3]; in [4]; in the assay with 8505C) was > 30 µM in each case. Moreover, the IC50 (in assay [5]; in assay [6]; with A2780; with A549) was > 30 µM in each case.

Take `CCOC(=O)C(C[N+](=O)[O-])c1cccc(C(F)(F)F)c1` (stereo not given): the IC50 with MCF7 stood at 7.6 µM; in assay [1] it was 4.7 µM; in assay [2], 7.2 µM; in assay [3] it was 10.9 µM; in [4] it was 8.6 µM; in the assay on 8505C it was 20.7 µM. Further, the IC50 in assay [5] was 10.2 µM; in [6] it was 8.2 µM; with A2780, 6.3 µM; in the assay on A549, 13.6 µM.

Consider `CCOC(=O)C(C[N+](=O)[O-])c1ccc(Cl)cc1` (stereo not given), for which the Activity with 518A2 [7] worked out at 2.883%; in the assay on 518A2 [9], 22.72%; with 518A2 [10], 12.222%; in the assay on 518A2 [11] it was 3.224%. Besides, the IC50 is 22.8 µM in the assay with MCF7; > 30 µM in assay [1]; > 30 µM in [2]; 19.2 µM in assay [3]; 17.3 µM in assay [4]; > 30 µM in the assay on 8505C. Also, the IC50 in assay [5] turned out to be 7.7 µM; in assay [6], 10.9 µM; in the assay with A2780 it was 1.6 µM; in the assay on A549 it was 14.9 µM. For the same molecule, in the assay with 518A2 [8], the outcome was Active.

In the case of `CCOC(=O)C(C[N+](=O)[O-])c1ccccc1Cl` (stereo not given), the half-maximal inhibitory concentration (IC50) (in the assay on MCF7; in assay [1]; in assay [2]; in [3]; in assay [4]; in the assay on 8505C) was > 30 µM throughout. The IC50 in [5] was > 30 µM; in assay [6], > 30 µM; with A2780, 9.9 µM; with A549, > 30 µM.

`CCOC(=O)C(CN)c1ccc(Cl)cc1` (stereo not given): the IC50 (with MCF7; in [1]; in assay [2]; in assay [3]; in [4]; in the assay on 8505C) was > 30 µM in each case. Also, the IC50 in [5] was 25.7 µM; in assay [6], > 30 µM; in the assay with A2780, 22.3 µM; in the assay on A549 it was > 30 µM.

On to `NC(=O)C(C[N+](=O)[O-])c1ccc(Cl)cc1` (stereo not given), for which the IC50 (in the assay with MCF7; in assay [1]; in [2]; in assay [3]; in [4]; in the assay on 8505C) was > 30 µM throughout. Moreover, the IC50 (in assay [5]; in assay [6]; in the assay with A2780; with A549) was > 30 µM each time.

For the molecule `CCOC(=O)C(C[N+](=O)[O-])c1ccc(C)cc1` (stereo not given), the IC50 (in the assay on MCF7; in [1]; in assay [2]; in assay [3]; in assay [4]; in the assay on 8505C) was > 30 µM in each case. Further, the IC50 (in [5]; in assay [6]; in the assay with A2780; in the assay with A549) was > 30 µM in each case.

For the molecule `CN(C)C(=O)C(C[N+](=O)[O-])c1ccc(Cl)cc1` (stereo not given), the IC50 (in the assay with MCF7; in assay [1]; in assay [2]; in assay [3]; in assay [4]; with 8505C) was > 30 µM each time. Also, the IC50 (in assay [5]; in assay [6]; with A2780; in the assay on A549) was > 30 µM in each case.
